The numbers were not newly measured in article PMC8654284 (Science Advances, 2021), which cites them from elsewhere.

Read-outs that look alike come from different tables or passages of the source.

Data set [1] has as its system NK1R.
The test system of data set [2] is NK1R. The note with it: clinically used NK1R antagonists.
Data set [3] has as its system NK1R. Conditions: said to explain the insurmountable antagonism only in part.
Data set [4] deals with NK1R. The note with it: NKA and NKB compared to SP.
The subject of the next data set is NK1R E172K. The note with it: NK1R E172 mutated to lysine as found in NK3R.
The mark [5] stands for this setting: inhibition of receptor activation by SP.

Turning to `COc1ccccc1CN[C@H]1CCCN[C@H]1c1ccccc1` [CP-99,994], the mode of antagonism entry in the data set with NK1R [1] (compared to aprepitant and netupitant) is “tight-binding, but surmountable”.
Turning to `C[C@@H](O[C@H]1OCCN(Cc2n[nH]c(=O)[nH]2)[C@H]1c1ccc(F)cc1)c1cc(C(F)(F)F)cc(C(F)(F)F)c1` [aprepitant], the mode of antagonism entry in the data set with NK1R [1] (setting [5]) is given as “pseudo-irreversible antagonists”. Moreover, the “in vivo efficacy (duration)” value in the data set on NK1R [2] was “markedly prolonged in vivo efficacy”. The dissociation kinetics entry in the data set with NK1R [3] is on record as “slower dissociation kinetics”.
For the molecule `Cc1ccccc1-c1cc(N2CCN(C)CC2)ncc1N(C)C(=O)C(C)(C)c1cc(C(F)(F)F)cc(C(F)(F)F)c1` [netupitant], in the data set with NK1R [1] (setting [5]), the mode of antagonism entry is listed as “pseudo-irreversible antagonists”. In the data set on NK1R [2], the “in vivo efficacy (duration)” value is recorded as “markedly prolonged in vivo efficacy”. For the same molecule, in the data set with NK1R [3], the dissociation kinetics result is recorded as “slower dissociation kinetics”.
Consider neurokinin A [NKA], for which, in the data set with NK1R [4], the “affinity for NK1R” value is given as “lower affinity compared to SP”.
As for neurokinin B [NKB], the “affinity for NK1R” value in the data set on NK1R [4] is reported as “lower affinity compared to SP”. The “affinity of NKB at E172K mutant” value in the data set on NK1R E172K is reported as “increases affinity”.
